These results are taken from ChEMBL document CHEMBL3272142, “Analgesics and narcotic antagonists in the benzomorphan and 8-oxamorphinan series. 5” (1978).

By ED50 is commonly meant the midpoint of the dose-response relation.

Molecules are shown by their SMILES. Some results are limits rather than exact numbers.

What all share (assay type): functional
The species entered for test [1] is Rattus norvegicus. The test is described as follows: Antagonist activity in rat assessed as morphine-induced analgesia by […] tail flick test. On the technique in general: Hot-plate and tail-flick tests time the reaction to a heat stimulus.
Test [2] concerns Mus musculus. Kind of test: Analgesic activity in sc dosed mouse assessed as phenylquinone-induced writhing measured for 10 mins.
The test system of test [3] is Mus musculus. Kind of test: Narcotic antagonist activity in sc dosed mouse assessed as reversal of oxymorphone-induced narcosis.
Test [4] relates to Mus musculus. The test is described as follows: Narcotic antagonist activity in sc dosed mouse assessed as reversal of oxymorphone-induced straub tail response administered 10 mins before oxymorphone challenge.
For test [5], the system named is Rattus norvegicus. The test is described as follows: Analgesic activity in sc dosed rat assessed as phenylquinone-induced writhing measured for 10 mins. A general note: An intraperitoneal irritant provokes the stretching counted in writhing tests.
Where [6] appears, read: Mus musculus, sc, 10 min, read-out: ED50.
Setting [7] is: Mus musculus, sc, read-out: ED50.

Turning to `Oc1ccc2c(c1)[C@@]13CCCC[C@@]1(O)[C@@H](C2)N(CC1CC1)CC3` [OXILORPHAN], the ED50 came out at 0.012 mg/kg in the test filed under Rattus norvegicus [1]; 12.8 mg/kg in the test with Mus musculus [2] (setting [6]); 0.03 mg/kg with Mus musculus [3]; 0.19 mg/kg in the test on Mus musculus [4] (setting [7]); 8 mg/kg in the test with Rattus norvegicus [5].

As for `Oc1ccc2c(c1)[C@@]13CCCO[C@H]1[C@@H](C2)N(CC1CC1)CC3` (stereo in doubt; 6c), the ED50 with Mus musculus [2] is 0.03 mg/kg; with Mus musculus [4] it was 0.3 mg/kg.

Consider `Oc1ccc2c(c1)[C@@]13CCCO[C@H]1[C@@H](C2)N(CC1CC1)CC3` (stereo in doubt; (+)-6c), for which the ED50 in the test on Mus musculus [2] and with Mus musculus [4] was greater than 40 mg/kg each time.

For the compound `C[C@@]12OCCC[C@@]13CCN(CC1CC1)[C@@H]2Cc1ccc(O)cc13` (stereo in doubt; 6d), the results for the ED50 in the test with Mus musculus [2] and with Mus musculus [4] were 0.19 mg/kg and 0.61 mg/kg, respectively.

Take `C[C@@]12OCCC[C@@]13CCN(CC1CCC1)[C@@H]2Cc1ccc(O)cc13`: the ED50 stood at 0.068 mg/kg with Mus musculus [2] (setting [6]) and 23 mg/kg in the test with Mus musculus [4] (setting [7]).

For `CC1CC23CCN(CC4CC4)C(Cc4ccc(O)cc42)C3(C)O1` (stereo unspecified), the ED50 in the test on Mus musculus [2] (setting [6]) is greater than 40 mg/kg; in the test on Mus musculus [4] (setting [7]), 5 mg/kg.

With `CC1CC23CCN(C)C(Cc4ccc(O)cc42)C3(C)O1` (stereo unspecified), the ED50 was 0.4 mg/kg in the test on Mus musculus [2] (setting [6]) and greater than 40 mg/kg in the test on Mus musculus [4] (setting [7]).

Take `Oc1ccc2c(c1)[C@@]13CCCO[C@H]1[C@@H](C2)N(CC1CC1)CC3` (stereo in doubt; (-)-6c): the ED50 was determined as 0.097 mg/kg in the test listed under Rattus norvegicus [1]; 0.013 mg/kg with Mus musculus [2]; 0.04 mg/kg in the test with Mus musculus [3]; 0.26 mg/kg in the test on Mus musculus [4]; 0.09 mg/kg with Rattus norvegicus [5].

`C[C@@]12OCCC[C@@]13CCN(CC1CC1)[C@@H]2Cc1ccc(O)cc13` (stereo in doubt; (-)-6d): the ED50 in the test filed under Rattus norvegicus [1] is 0.021 mg/kg; in the test on Mus musculus [2], 0.105 mg/kg; with Mus musculus [3], 0.014 mg/kg; with Mus musculus [4] it was 0.2 mg/kg; with Rattus norvegicus [5] it was 0.2 mg/kg.

Consider `C[C@@]12OCCC[C@@]13CCN(CC1CC1)[C@@H]2Cc1ccc(O)cc13` (stereo in doubt; (+)-6d), for which the ED50 in the test with Mus musculus [2] and in the test on Mus musculus [4] was greater than 40 mg/kg each time.

For the compound `CN1CC[C@]23CCCO[C@]2(C)[C@H]1Cc1ccc(O)cc13`, the ED50 in the test on Mus musculus [2] (setting [6]) and in the test with Mus musculus [4] (setting [7]) was greater than 40 mg/kg in each case.

`C[C@]12OCCC[C@@]13CCN(CC1CCC1)[C@@H]2Cc1ccc(O)cc13`: the ED50 in the test with Mus musculus [2] (setting [6]) is 16 mg/kg; in the test on Mus musculus [4] (setting [7]) it was 5 mg/kg.

In the case of `C=CCC12CCN(CC3CCC3)C(Cc3ccc(O)cc31)[C@]2(C)O` (stereo partly specified), the ED50 with Mus musculus [2] (setting [6]) worked out at 1.3 mg/kg; with Mus musculus [4] (setting [7]), 10 mg/kg.

Regarding `C[C@]12OCCC[C@@]13CCN(CC1CC1)[C@@H]2Cc1ccc(O)cc13`, the results for the ED50 in the test with Mus musculus [2] (setting [6]) and in the test on Mus musculus [4] (setting [7]) were 35 mg/kg and 6 mg/kg, respectively.

As to `CC(C)=CCN1CC[C@]23CCCO[C@@]2(C)[C@H]1Cc1ccc(O)cc13`, the ED50 in the test on Mus musculus [2] (setting [6]) is 0.18 mg/kg; with Mus musculus [4] (setting [7]), greater than 40 mg/kg.

Turning to `C=CCN1CC[C@]23CCCO[C@@]2(C)[C@H]1Cc1ccc(O)cc13`, the ED50 in the test with Mus musculus [2] (setting [6]) came out at 28 mg/kg; in the test with Mus musculus [4] (setting [7]), 1 mg/kg.

Consider `C=CCC12CCN(CC3CCC3)C(Cc3ccc(O)cc31)[C@@H]2O` (stereo partly specified), for which the ED50 in the test on Mus musculus [2] (setting [6]) was 11 mg/kg; in the test on Mus musculus [4] (setting [7]), 4.5 mg/kg.

In the case of `C=CCC12CCN(CC3CC3)C(Cc3ccc(O)cc31)[C@@H]2O` (stereo partly specified), the results for the ED50 with Mus musculus [2] (setting [6]) and in the test on Mus musculus [4] (setting [7]) were 0.23 mg/kg and 1.9 mg/kg, respectively.

Take `CN1CC[C@]23CCCO[C@@]2(C)[C@H]1Cc1ccc(O)cc13`: the results for the ED50 in the test with Mus musculus [2] (setting [6]) and in the test with Mus musculus [4] (setting [7]) were 0.03 mg/kg and greater than 40 mg/kg, respectively.

On to `Oc1ccc2c(c1)[C@@]13CCCC[C@@]1(O)[C@@H](C2)N(CC1CCC1)CC3` [BUTORPHANOL], for which the ED50 in the test filed under Rattus norvegicus [1] amounted to 0.43 mg/kg; in the test with Mus musculus [2] (setting [6]) it was 0.051 mg/kg; with Mus musculus [3], 0.27 mg/kg; with Mus musculus [4] (setting [7]), 0.98 mg/kg; in the test with Rattus norvegicus [5], 0.04 mg/kg.

For the compound `Oc1ccc2c(c1)[C@@]13CCCO[C@H]1[C@@H](C2)N(CC1CCC1)CC3`, the ED50 in the test on Mus musculus [2] (setting [6]) was determined as 0.15 mg/kg; in the test with Mus musculus [4] (setting [7]), 10 mg/kg.

On to `Oc1ccc2c(c1)[C@@]13CCCO[C@@H]1[C@@H](C2)N(CC1CC1)CC3`, for which the 50% effective dose (ED50) amounted to 8.4 mg/kg in the test on Mus musculus [2] (setting [6]) and 20 mg/kg with Mus musculus [4] (setting [7]).

Turning to `C=CCC12CCN(CC3CC3)C(Cc3ccc(O)cc31)[C@]2(C)O` (stereo partly specified), the figures for the ED50 in the test with Mus musculus [2] (setting [6]) and with Mus musculus [4] (setting [7]) were greater than 40 mg/kg and 0.8 mg/kg, respectively.

With `Oc1ccc2c(c1)[C@@]13CCCC[C@H]1[C@@H](C2)N(CC1CC1)CC3` [CYCLORPHAN], the ED50 in the test filed under Rattus norvegicus [1] worked out at 0.032 mg/kg; in the test with Mus musculus [2] (setting [6]) it was 0.013 mg/kg; with Mus musculus [3] it was 0.1 mg/kg; in the test on Mus musculus [4] (setting [7]) it was 0.32 mg/kg; in the test on Rattus norvegicus [5] it was 0.028 mg/kg.

Regarding `C=CCC12CCN(C)C(Cc3ccc(O)cc31)[C@@H]2O` (stereo partly specified), the ED50 with Mus musculus [2] (setting [6]) and with Mus musculus [4] (setting [7]) was greater than 40 mg/kg throughout.

For the compound `CC1CC23CCN(C)C(Cc4ccc(O)cc42)C3O1` (stereo unspecified), the ED50 in the test with Mus musculus [2] (setting [6]) was 1.8 mg/kg; in the test with Mus musculus [4] (setting [7]) it was greater than 40 mg/kg.

Consider `CN1CC[C@]23CCCO[C@@H]2[C@H]1Cc1ccc(O)cc13`, for which the values for the ED50 with Mus musculus [2] (setting [6]) and with Mus musculus [4] (setting [7]) were 30 mg/kg and greater than 40 mg/kg, respectively.

As to `CN1CC[C@]23CCCO[C@H]2[C@H]1Cc1ccc(O)cc13`, the ED50 with Mus musculus [2] (setting [6]) was 0.6 mg/kg; in the test with Mus musculus [4] (setting [7]), greater than 40 mg/kg.
